Measured values taken from patent US7968556B2, “Heteroaryl compounds, compositions thereof, and methods of treatment therewith” (Signal Pharmaceuticals, LLC, priority 2006, dated 2011).

How the values were obtained:
mTOR = mTOR (Homo sapiens, UniProt P42345); assay: mTOR HTR-FRET Assay; format: biochemical
Method: The following is an example of an assay that can be used to determine the mTOR inhibitory activity of a test compound. Reagents are prepared as follows:
“Simple TOR buffer” (used to dilute high glycerol TOR fraction): 10 mM Tris pH 7.4, 10 mM NaCl, 0.1% Tween-20, 1 mM DTT (from 1M stock frozen at −20° C. just prior to use). For convenience a large quantity of “Simple TOR buffer” w/o DTT can be stored at 4° C. It can be brought to room temperature and DTT added just prior to dilution of TOR fraction.
5XKB/5XMn/5×ATP solution (used to dilute substrate GST-p70S6kin 81 a.a. just prior to use) (40 ml screen quantity shown):
Enzyme solution: Dilute TOR fraction 1:14 in “Simple TOR Buffer”. For current lot that is 640 μg/ml TOR fraction diluted 14× to yield 45.7 μg/ml TOR in buffer (i.e. 7.85 ml TOR pooled fraction+102.1 ml Simple TOR buffer=110 ml 14× diluted TOR fraction). Each Enzyme Lot must be QC'd prior to assay.
Substrate solution: This may be prepared just prior to assay if preferred. Dilute 5.3 mg/ml GST-p70S6kinase fragment stock to 3.5 μg/ml (97 nM) working stock in 5XKB/5XMn/5×ATP solution (i.e. 26.41 μL (5.3 mg/ml) GST-p70S6+40 ml 5XKB/5XMn/5×ATP=40 ml 3.5 μg/ml (97 nM)).
Assay Buffer (for dilution of Antibodies used in Antibody Detection Reagent):
Antibody Detection Reagent (this reagent should be made just prior to addition to Assay Plates):
Using PlateTrak program (Screen) or Matrix Pipettor (SAR), 19.5 μL of diluted TOR fraction is added to assay plate in all test, reference or positive control wells. 19.5 μL of “Simple TOR buffer” is added to all negative control wells. If treating multiple plates with the same compounds, can increase volume of enzyme to multiples of 19.5 μL in a tall 384 well polypropylene plate.
Using EP3, 0.5 μl of test, reference or control DMSO is added to each well with mixing. Plates are incubated for 30 minutes at room temperature.
Using PlateTrak program (Screen) or Matrix Pipettor (SAR) 5 μL of 5XKB/5XMn/5×ATP/5× substrate solution is added to each well of the assay plate to start the reaction. The solutions are mixed well and incubated for 2 hours at room temperature.
Using PlateTrak program (Screen) or Matrix Pipettor (SAR) 5 μL of 60 mM EDTA is added to stop the reaction. The solutions are mixed well and allowed to sit for 15-20 minutes before the next step.
Using PlateTrak program (Screen) or Matrix Pipettor (SAR) 10 μl of Antibody Detection Reagent is added. The solutions are mixes well and incubated for 5 hours to O/N to allow antibodies to form complexes with phosphorylated substrate.
Plates are read on AnalystHT using protocol Multi-Method protocol.

Tyk2 = biological target: T1, Tyk2 (Homo sapiens, UniProt P29597); assay: Tyk2 HTRF Assay; format: biochemical
T1 construct: 450 ng/ml TYK2 KD (Cama Biosciences 08-147 Lot 06CBS-3022D); purchased Cama Biosciences (so in the source)
T1 sequence (P29597 897-1176 limits assumed): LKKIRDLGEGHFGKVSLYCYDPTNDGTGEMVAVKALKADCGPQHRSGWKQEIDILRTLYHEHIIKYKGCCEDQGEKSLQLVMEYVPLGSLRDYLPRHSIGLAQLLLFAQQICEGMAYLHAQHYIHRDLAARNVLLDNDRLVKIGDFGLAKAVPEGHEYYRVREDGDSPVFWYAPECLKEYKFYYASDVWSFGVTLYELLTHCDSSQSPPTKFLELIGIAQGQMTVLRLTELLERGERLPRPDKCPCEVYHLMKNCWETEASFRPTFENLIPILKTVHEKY
Method: The following is an example of an assay that can be used to determine the Tyk2 inhibitory activity of a test compound.
25 μl/well DMSO is added to Columns 2 and 14 (except 28.5 μl is added to well P14 of Greiner 384-well polypropylene plate). 20 μl/well DMSO is added to all remaining wells.
5 mM compound solutions are added by addition of 5 μl of 30 mM compound to 25 μl DMSO in Columns 2 and 14 of plate. 1.5 mM reference control is prepared by addition of 1.5 μl of 30 mM JAK3 Inhibitor VI to 28.5 μl DMSO in Well P14.
Serial dilution is then performed by the following steps: (i) Compounds in Column 2 are mixed by pipetting 20 μl up and down 6X; (ii) 10 μl/well compounds in DMSO are transferred from one column to the next column for Columns 2-11; (iii) wells are mixed by pipetting 20 μl up and down 6×; (iv) tips are washed 3×25 μl DMSO, 2×25 μl next DMSO; (v) steps i-iv repeated for Columns 14-23.
The following buffers are prepared:
Assay Buffer: 50 mM HEPES pH 7.6; 1 mM DTT; 10 mM MgCl2; 0.01% Triton X100; 0.01% BSA; and 0.1 mM EDTA.
Kinase in Assay Buffer: 450 ng/ml TYK2 KD (Cama Biosciences 08-147 Lot 06CBS-3022D).
Substrate/Detection Mixture (1×ATP) in Assay Buffer: 188 nM DyLight 647-Streptavidin (Pierce 21824); 5 μM Biotin-EQEDEPEGDYFEWLE (Lyn Substrate Peptide); 750 ng/ml Eu-anti-phospho-Tyrosine (PerkinElmer AD0069); 62.5 μM ATP; 80 nM Substrate Peptide (American Peptide Company 332722).
Substrate/Detection Mixture (20×ATP) in Assay Buffer: 188 nM DyLight 647-Streptavidin; 5 μM Biotin-EQEDEPEGDYFEWLE; 750 ng/ml Eu-anti-phospho-Tyrosine; 1250 μM ATP; 80 nM Substrate Peptide.
14.5 μl/well Enzyme Mix or Dilution Buffer (Background Controls) is added to Costar 384 well black plates.
Compound addition and mixture is performed by the following steps: (i) 0.5 μl/well DMSO/compounds in DMSO is transferred from Greiner 384-well polypropylene plate to a plate containing 14.5 μl/well Enzyme Mix and Dilution Buffer; (ii) mixed by pipetting 10 μl up and down 4×; (iii) tips are washed 4×10 μl in DMSO, 2×20 μl in other DMSO; (iv) steps i-iii are repeated until all plates are completed.
10 μl/well Substrate/Detection Mixtures is added and incubated at room temperature 2 hours (on shaker for first 2+ minutes).
10 μl/well 50 mM EDTA/0.01% Triton X100 is added and incubated >15 minutes at room temperature (on shaker for first 2+ minutes).
Plates are read at 665 nm and 620 nm emission on Analyst GT protocol HTRF_SP_A (Counts= 665/620×10000).

IKK-2 = biological target: T2, IKK-2 (Homo sapiens, UniProt O14920, S177E/S181E); assay: IKK-2 screening assay (IKK2EE 33P Assay / IKK2EE NEMO HTRF Assay); format: biochemical
T2 sequence (O14920 1-756 S177E/S181E): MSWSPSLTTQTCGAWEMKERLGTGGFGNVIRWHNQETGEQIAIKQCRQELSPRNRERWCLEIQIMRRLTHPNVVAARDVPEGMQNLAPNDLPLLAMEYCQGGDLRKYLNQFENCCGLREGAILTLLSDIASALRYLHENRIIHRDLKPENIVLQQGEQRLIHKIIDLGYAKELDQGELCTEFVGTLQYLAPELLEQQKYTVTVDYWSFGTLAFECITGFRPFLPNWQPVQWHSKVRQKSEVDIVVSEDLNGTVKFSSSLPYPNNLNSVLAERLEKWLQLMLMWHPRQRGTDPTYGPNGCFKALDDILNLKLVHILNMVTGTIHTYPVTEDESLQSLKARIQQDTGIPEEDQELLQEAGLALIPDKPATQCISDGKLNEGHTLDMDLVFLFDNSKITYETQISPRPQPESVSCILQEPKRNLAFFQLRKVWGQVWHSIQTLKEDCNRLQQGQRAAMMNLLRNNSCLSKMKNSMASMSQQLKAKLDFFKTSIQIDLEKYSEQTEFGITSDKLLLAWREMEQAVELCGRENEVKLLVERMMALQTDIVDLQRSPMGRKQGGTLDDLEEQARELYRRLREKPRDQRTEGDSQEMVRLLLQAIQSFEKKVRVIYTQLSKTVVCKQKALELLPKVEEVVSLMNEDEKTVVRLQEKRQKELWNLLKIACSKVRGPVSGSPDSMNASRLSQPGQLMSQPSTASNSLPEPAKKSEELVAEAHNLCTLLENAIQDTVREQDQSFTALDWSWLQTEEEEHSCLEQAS
Method: The following is an example of an assay that can be used to determine the IKK2EE inhibitory activity of a test compound.
A reaction buffer (pH 7.8) is prepared containing HEPES (20 mM), MgCl2 (10 mM), EDTA (0.1 mM), DTT (1 mM) and Triton X-100 (0.004%). IKK2EE (0.75 μg/ml is used. GST-IKBα (50 μg/ml) is used as substrate. Adenosine 5′-triphosphate (1.5 μM with ^33P-ATP 5 nCi/μl) is used. Reactions are stopped with trichloroacetic acid (6.25%).
Appropriate amounts of test compounds or controls in 100% DMSO are added to the assay plate. A peptide-substrate solution (PSS) is prepared by adding peptide stock to an appropriate volume of buffer (peptide concentration in the PSS will be about 100 μg/ml). An enzyme-peptide solution (EPS) is prepared by adding enzyme stock to an appropriate volume of PSS (the enzyme concentration in the EPS will be about 1 μg/ml). An ATP solution is prepared by adding ATP stock to an appropriate volume of buffer (the ATP concentration will be 15 μM).
85 μl of EPS is added to the assay wells (or PSS to positive control wells) of 96 well polypropylene plates. The ATP solution is then completed by adding ^33P-ATP (to a final concentration of 50 μCi/ml).
The reaction is initiated by adding 10 μl ATP solution to each well. Plates are shaken from about 12 seconds and allowed to incubate at room temperature for 1 hours. 100 μl of trichloroacetic acid solution (12.5%) is added to stop the reaction and the plates are incubated at room temperature for at least 10 minutes. The assay plates are harvested onto a Millipore Multiscreen harvest Plate FC using an appropriate harvester and the harvest plates are washed with 1×PBS solution for about 10 seconds (continuous flow). Harvest plates are allowed to dry thoroughly and the bottoms of the plates are sealed. 20-50 μl of Microscint20 is added to each well, tops are sealed and plates are read using an appropriate scintillation counter.
A reaction buffer (pH 7.6) is prepared containing HEPES (20 mM), MgCl2 (10 mM), EDTA (0.05 mM), DTT (1 mM) and Triton X-100 (0.004%). IKK2EE-NEMO (0.7 μg/ml is used. GST-IKBα (0.5 μg/ml) is used as substrate. Adenosine 5′-triphosphate (1.5 μM) is used. Detection reagents used are mouse anti-P-IKBα (30 ng/ml), Eu anti-mouse (300 ng/ml) and Cy5 anti-GST (11.5 μg/ml). Reactions are stopped with EDTA (20 mM).
An enzyme solution (ES) is prepared by adding enzyme stock to an appropriate volume of buffer (enzyme concentration in the ES will be about 1.7 ng/ml). A detection mixture (DM) is prepared by adding ATP (final conc. 3.75 μM), mouse anti-P-IKBα (final conc. 75 ng/ml), GST-IKBα (final conc. 1.26 μg/ml), Eu anti-mouse in buffer (final conc. 750 ng/ml).
5 μl of compound (solvated in 10% DMSO) is added to assay wells (or 10% DMSO to control wells) of low binding reaction plates. […] ES is added to assay wells (or buffer to control wells) and the reaction is initiated by adding 10 μl DM to all wells. Plates are incubated at room temperature for 45 minutes. Stop mixture is prepared by adding EDTA (final conc. 70 mM) and Cy5 anti-GST (final conc. 40 μg/ml) to an appropriate volume of buffer. Stop mixture is added and plates are shaken for 20 seconds and incubated at room temperature for at least 3 hours (preferably in the dark). Plates are read on an Analyst HT using Multi-Method HTRF.

| IC50 (mTOR) [µM] | IC50 (Tyk2) [µM] | melting point [°C] | IC50 (IKK-2) [µM] | SMILES |
| --- | --- | --- | --- | --- |
| > 30 | 0.1 to 5 | 312 |  | COc1ccccc1-n1c(=O)[nH]c2c(C(N)=O)nc(-c3cccc4[nH]cnc34)nc21 [Compound 99, 2-(1H-benzo[d]imidazol-4-yl)-9-(2-methoxyphenyl)-8-oxo-8,9-dihydro-7H-purine-6-carboxamide] |
| 10.1 to 20 |  | 203 to 204 | > 30 | COc1ccccc1-n1c(=O)[nH]c2c(C(N)=O)nc(-c3ccc4cc[nH]c4c3)nc21 [Compound 11, 2-(1H-indol-6-yl)-9-(2-methoxyphenyl)-8-oxo-8,9-dihydro-7H-purine-6-carboxamide] |
| > 30 |  | 294 to 296 | > 30 | NC(=O)c1nc(-c2cccnc2)nc2c1NC(=O)CN2c1ccccc1 [Compound 36, 6-oxo-8-phenyl-2-(pyridin-3-yl)-5,6,7,8-tetrahydropteridine-4-carboxamide] |
| 0.1 to 5 |  | 386 to 388 | 20.1 to 30 | COc1ccc(-n2c(=O)[nH]c3c(C(N)=O)nc(-c4cccc(O)c4)nc32)cc1 [Compound 12, 2-(3-hydroxyphenyl)-9-(4-methoxyphenyl)-8-oxo-8,9-dihydro-7H-purine-6-carboxamide] |
| 10.1 to 20 |  | 328 to 330 | > 30 | N#Cc1cccc(-c2nc(C(N)=O)c3[nH]c(=O)n(-c4ccccc4)c3n2)c1 [Compound 27, 2-(3-cyanophenyl)-8-oxo-9-phenyl-8,9-dihydro-7H-purine-6-carboxamide] |
